Values belong to the compound of their own block, whether it stands above or below them.
Assays:
[1] = target: T1, 3-phosphoinositide-dependent protein kinase 1 (Homo sapiens, UniProt O15530); assay: Inhibition of PDK1
T1 sequence (O15530 whole entry): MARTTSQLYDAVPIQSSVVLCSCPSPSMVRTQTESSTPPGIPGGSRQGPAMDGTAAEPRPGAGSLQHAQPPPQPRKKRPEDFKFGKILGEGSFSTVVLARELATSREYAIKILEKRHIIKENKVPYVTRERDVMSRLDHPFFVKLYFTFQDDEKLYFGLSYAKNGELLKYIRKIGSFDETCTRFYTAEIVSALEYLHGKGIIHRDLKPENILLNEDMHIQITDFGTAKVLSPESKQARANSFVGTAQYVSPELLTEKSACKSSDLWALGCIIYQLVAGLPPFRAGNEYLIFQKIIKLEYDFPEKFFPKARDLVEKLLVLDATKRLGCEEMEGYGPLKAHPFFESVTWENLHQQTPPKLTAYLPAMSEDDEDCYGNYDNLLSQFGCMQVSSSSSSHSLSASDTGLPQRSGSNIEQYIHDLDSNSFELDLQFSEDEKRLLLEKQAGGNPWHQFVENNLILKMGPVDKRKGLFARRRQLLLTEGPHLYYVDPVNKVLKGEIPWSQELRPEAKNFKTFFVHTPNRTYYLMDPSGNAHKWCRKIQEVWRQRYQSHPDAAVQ

[2] = Inhibition of CAMII; parameters: species or system Homo sapiens
[3] = test system: DU-145; assay: Growth inhibition of DU145 cells; type: functional, cell-based; settings: Homo sapiens
[4] = target: Ribosomal protein S6 kinase beta-1 (Homo sapiens, UniProt P23443); assay: Inhibition of S6K
[5] = target: T2, Serine/threonine-protein kinase Sgk1 (Homo sapiens, UniProt O00141); assay: Inhibition of SGK1
T2 sequence (O00141 whole entry): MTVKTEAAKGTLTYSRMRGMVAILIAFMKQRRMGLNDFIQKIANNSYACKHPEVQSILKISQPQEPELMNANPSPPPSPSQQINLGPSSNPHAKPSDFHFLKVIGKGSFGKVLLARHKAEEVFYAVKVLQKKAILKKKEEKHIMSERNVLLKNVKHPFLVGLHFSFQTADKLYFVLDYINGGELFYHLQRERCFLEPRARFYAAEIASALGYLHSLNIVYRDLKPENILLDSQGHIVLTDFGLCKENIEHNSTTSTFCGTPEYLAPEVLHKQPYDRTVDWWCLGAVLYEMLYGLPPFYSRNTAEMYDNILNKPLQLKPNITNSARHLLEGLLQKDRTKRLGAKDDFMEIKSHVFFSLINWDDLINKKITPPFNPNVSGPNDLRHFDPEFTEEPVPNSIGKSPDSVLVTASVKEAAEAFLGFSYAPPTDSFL

[6] = Inhibition of P38; parameters: species or system Homo sapiens
[7] = test system: K562; assay: Growth inhibition of K562 cells; type: functional, cell-based; settings: Homo sapiens
[8] = test system: MDA-MB-468; assay: Growth inhibition of MDA-MB-468 cells; type: functional, cell-based; settings: Homo sapiens
[9] = Inhibition of PKA; parameters: species or system Homo sapiens
[10] = target: Inhibitor of NF-kappa-B kinase (IKK) (Homo sapiens, UniProt O14920+O15111+Q9Y6K9); assay: Inhibition of IKK; type: protein-complex assay
[11] = Inhibition of MEK; parameters: species or system Homo sapiens
[12] = test system: HCT-116; assay: Growth inhibition of HCT116 cells; type: functional, cell-based; settings: Homo sapiens
[13] = Growth inhibition of M49-5 cells; type: functional, cell-based; settings: Homo sapiens
[14] = target: MAP kinase-activated protein kinase 2 (Homo sapiens, UniProt P49137); assay: Inhibition of MK2
[15] = Inhibition of TPL2; parameters: species or system Homo sapiens
[16] = target: RAC-alpha serine/threonine-protein kinase (Homo sapiens, UniProt P31749); assay: Inhibition of AKT
[17] = target: Cyclin-dependent kinase 4 (Homo sapiens, UniProt P11802); assay: Inhibition of CDK4
[18] = target: Proto-oncogene tyrosine-protein kinase Src (Homo sapiens, UniProt P12931); assay: Inhibition of Src
[19] = Growth inhibition of PC-3mm2 cells; type: functional, cell-based; settings: Homo sapiens, PC3MM2
[20] = test system: SW-620; assay: Growth inhibition of SW620 cells; type: functional, cell-based; settings: Homo sapiens

MAP kinase-activated protein kinase 2, sequence (P49137 whole entry): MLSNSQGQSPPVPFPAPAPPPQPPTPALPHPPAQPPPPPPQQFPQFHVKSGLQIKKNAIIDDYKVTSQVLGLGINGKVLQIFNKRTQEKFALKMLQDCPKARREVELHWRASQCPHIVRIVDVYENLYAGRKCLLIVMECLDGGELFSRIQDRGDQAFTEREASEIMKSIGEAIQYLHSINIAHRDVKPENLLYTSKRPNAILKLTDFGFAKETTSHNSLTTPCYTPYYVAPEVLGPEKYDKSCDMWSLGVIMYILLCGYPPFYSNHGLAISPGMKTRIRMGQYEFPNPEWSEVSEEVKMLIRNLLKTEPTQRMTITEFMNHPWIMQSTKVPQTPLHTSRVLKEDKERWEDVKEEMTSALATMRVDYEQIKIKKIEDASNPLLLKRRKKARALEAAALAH
Ribosomal protein S6 kinase beta-1, sequence (P23443 whole entry): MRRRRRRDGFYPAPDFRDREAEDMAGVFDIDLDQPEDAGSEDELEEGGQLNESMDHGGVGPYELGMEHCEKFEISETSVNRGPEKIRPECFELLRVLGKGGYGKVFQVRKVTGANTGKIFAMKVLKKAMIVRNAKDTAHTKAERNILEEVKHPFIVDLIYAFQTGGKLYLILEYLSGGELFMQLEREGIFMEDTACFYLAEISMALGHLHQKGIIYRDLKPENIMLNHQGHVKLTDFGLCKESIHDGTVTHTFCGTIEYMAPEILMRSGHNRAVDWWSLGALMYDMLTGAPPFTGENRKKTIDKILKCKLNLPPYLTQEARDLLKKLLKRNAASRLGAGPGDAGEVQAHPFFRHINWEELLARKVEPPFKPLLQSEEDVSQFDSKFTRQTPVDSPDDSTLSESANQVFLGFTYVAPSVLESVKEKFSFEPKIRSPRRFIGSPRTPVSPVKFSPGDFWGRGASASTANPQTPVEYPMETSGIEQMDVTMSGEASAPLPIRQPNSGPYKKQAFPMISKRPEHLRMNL
Inhibitor of NF-kappa-B kinase (IKK), sequence (O14920 whole entry): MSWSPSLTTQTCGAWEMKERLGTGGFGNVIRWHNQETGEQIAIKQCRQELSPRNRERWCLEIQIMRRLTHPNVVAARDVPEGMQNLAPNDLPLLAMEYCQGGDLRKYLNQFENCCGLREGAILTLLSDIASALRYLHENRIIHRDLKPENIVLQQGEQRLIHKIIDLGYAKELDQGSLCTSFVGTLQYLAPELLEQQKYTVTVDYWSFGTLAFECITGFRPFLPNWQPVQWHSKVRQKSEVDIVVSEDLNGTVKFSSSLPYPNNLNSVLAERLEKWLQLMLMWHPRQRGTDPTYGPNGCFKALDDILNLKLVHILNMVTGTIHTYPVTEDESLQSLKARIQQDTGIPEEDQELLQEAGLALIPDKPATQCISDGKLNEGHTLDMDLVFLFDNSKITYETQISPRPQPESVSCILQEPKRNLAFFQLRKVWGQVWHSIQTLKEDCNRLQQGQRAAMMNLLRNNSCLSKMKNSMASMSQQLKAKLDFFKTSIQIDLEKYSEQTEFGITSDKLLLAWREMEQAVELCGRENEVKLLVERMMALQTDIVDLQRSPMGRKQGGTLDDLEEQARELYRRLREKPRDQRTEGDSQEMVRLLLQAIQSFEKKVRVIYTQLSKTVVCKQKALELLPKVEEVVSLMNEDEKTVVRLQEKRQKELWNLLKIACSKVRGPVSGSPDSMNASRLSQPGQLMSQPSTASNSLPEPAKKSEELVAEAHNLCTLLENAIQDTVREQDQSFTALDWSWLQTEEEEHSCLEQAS
Inhibitor of NF-kappa-B kinase (IKK), sequence (O15111 whole entry): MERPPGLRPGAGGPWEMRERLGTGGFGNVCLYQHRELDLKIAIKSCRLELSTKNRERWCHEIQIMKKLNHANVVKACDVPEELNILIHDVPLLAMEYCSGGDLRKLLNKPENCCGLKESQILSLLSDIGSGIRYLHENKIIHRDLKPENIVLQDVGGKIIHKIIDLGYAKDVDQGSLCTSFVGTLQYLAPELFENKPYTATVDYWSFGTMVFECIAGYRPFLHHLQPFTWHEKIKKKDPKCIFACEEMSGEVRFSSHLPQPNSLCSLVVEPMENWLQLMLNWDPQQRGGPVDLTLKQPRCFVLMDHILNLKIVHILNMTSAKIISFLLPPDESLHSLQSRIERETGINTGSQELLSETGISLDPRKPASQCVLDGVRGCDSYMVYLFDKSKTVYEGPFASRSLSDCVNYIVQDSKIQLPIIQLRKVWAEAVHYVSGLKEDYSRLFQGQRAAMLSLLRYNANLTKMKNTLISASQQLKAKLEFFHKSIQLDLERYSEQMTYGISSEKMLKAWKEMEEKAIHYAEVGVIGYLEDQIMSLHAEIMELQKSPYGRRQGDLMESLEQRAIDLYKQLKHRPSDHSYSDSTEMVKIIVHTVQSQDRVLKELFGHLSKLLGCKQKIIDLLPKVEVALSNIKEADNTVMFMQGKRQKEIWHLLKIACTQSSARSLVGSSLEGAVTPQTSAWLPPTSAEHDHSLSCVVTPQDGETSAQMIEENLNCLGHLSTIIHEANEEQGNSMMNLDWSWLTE
Inhibitor of NF-kappa-B kinase (IKK), sequence (Q9Y6K9 whole entry): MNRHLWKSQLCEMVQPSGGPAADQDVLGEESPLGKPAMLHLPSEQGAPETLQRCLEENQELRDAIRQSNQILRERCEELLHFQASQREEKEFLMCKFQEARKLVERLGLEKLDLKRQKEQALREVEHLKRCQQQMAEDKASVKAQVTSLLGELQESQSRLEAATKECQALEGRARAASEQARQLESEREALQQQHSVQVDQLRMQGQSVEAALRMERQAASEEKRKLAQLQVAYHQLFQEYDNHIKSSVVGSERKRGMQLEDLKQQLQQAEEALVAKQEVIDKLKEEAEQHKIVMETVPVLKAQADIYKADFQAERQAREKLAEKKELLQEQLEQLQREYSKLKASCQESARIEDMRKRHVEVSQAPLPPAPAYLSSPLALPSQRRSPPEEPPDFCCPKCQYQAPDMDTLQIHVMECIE
RAC-alpha serine/threonine-protein kinase, sequence (P31749 whole entry): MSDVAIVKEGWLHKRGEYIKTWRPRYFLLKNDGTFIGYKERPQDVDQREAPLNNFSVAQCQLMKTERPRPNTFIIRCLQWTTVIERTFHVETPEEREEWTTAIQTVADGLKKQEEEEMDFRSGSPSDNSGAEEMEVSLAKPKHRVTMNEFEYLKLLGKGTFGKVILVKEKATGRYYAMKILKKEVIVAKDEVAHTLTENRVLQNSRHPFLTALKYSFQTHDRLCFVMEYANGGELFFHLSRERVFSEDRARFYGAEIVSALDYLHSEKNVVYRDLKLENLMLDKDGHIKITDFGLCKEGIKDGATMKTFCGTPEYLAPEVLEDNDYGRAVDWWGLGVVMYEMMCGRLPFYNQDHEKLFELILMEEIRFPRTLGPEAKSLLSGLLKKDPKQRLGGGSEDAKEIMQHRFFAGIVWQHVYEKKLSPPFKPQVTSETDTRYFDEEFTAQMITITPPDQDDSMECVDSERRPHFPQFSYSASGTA
Proto-oncogene tyrosine-protein kinase Src, sequence (P12931 2-536 limits assumed): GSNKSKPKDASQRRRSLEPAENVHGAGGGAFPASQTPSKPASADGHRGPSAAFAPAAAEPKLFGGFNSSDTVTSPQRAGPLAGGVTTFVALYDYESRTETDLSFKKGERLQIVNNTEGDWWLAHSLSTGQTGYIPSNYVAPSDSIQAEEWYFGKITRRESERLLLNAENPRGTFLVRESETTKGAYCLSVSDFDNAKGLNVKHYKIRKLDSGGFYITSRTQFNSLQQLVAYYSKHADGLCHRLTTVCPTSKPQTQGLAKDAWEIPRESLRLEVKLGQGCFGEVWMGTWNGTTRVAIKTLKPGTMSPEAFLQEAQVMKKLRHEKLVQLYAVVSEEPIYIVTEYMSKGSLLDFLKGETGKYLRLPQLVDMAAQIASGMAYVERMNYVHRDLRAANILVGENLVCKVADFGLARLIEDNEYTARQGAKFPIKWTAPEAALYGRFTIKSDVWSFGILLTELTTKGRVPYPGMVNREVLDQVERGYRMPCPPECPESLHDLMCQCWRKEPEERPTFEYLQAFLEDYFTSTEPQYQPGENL
Cyclin-dependent kinase 4, sequence (P11802 whole entry): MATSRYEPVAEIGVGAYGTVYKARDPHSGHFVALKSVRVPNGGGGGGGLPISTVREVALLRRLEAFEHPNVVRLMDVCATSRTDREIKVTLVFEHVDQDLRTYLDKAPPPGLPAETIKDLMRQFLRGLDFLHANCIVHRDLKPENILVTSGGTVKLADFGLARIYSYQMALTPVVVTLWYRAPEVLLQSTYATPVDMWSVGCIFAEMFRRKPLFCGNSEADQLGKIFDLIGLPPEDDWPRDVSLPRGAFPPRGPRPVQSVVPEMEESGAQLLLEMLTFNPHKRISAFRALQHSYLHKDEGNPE

IC50 [1]: 2.49 µM
SMILES: COc1cc2c(cc1NCCN(C)C)ncc1c(N)nc3c(C)c(N)ccc3c12

IC50 [1]: 0.2 µM
SMILES: COc1cc2c(cc1OCCCN(C)C)ncc1c(N)nc3c(C)c(N)ccc3c12

IC50 [1]: 0.58 µM
SMILES: COc1cc2c(cc1F)ncc1c(N)nc3c(C)c(N)ccc3c12

IC50 [1]: 0.04 µM
SMILES: COc1cc2ncc3c(N)nc4c(C)c(O)ccc4c3c2cc1OC

IC50 [2]: > 10 µM | IC50 [3]: 2.53 µM | IC50 [4]: > 10 µM | IC50 [5]: > 10 µM | IC50 [6]: > 10 µM | IC50 [7]: 0.48 µM | IC50 [8]: 1.55 µM | IC50 [9]: > 10 µM | IC50 [10]: > 10 µM | IC50 [11]: > 10 µM | IC50 [12]: 3.6 µM | IC50 [14]: > 10 µM | IC50 [15]: > 10 µM | IC50 [16]: > 10 µM | IC50 [17]: > 10 µM | IC50 [18]: > 10 µM | IC50 [20]: 3.9 µM
SMILES: COc1cc2ncc3c(N)nc4c(C)c(N)ccc4c3c2cc1OC
IC50 [13]: 0.35 µM | IC50 [19]: 4.3 µM

IC50 [1]: 2.12 µM
SMILES: COc1cc2ncc3c(N)nc4c(C)c(Cl)ccc4c3c2cc1OC

IC50 [1]: 7.45 µM
SMILES: COc1cc2ncc3cnc4ccccc4c3c2cc1OC

IC50 [1]: 0.06 µM
SMILES: COc1cc2c(cc1OCCN1CCOCC1)ncc1c(N)nc3c(C)c(N)ccc3c12

From ChEMBL document CHEMBL1138235, “Discovery of dibenzo[c,f][2,7]naphthyridines as potent and selective 3-phosphoinositide-dependent kinase-1 inhibitors” (J Med Chem, 2007)
